Test results taken from patent publication US20130254944A1, “Herbicide Tolerant Soybeans and Methods of Use” (PIONEER HI BRED INTERNATIONAL INC, priority 2012, published 2013).

Columns and labels:
Assay type in all cases: in vivo
wild type soybean = assay: Greenhouse postemergence test of ALS-inhibiting herbicides, wild type soybean
Description: (§1) Soybean lines having wild type als1 & 2 genes, the Als1 mutation, the Als2 mutation, or both the Als1 and Als2 mutations were evaluated for their response to various herbicides. Two seeds from each line were planted into 4-inch pots containing Redi-Earth potting mix (Sun Gro Horticulture Canada Ltd. 52130 RR65, Seba Beach, Alberta TOE 2B0), with two replications planted for each treatment. Pots were placed in flats at 15 pots/flat, and the resulting plants were grown in a greenhouse environment supplemented with lighting (16 hr photoperiod) for the duration of the test. Selected herbicides representing the mode of action that inhibits the acetolactate synthase enzyme, also known as the acetohydroxyacid synthase enzyme, were applied postemergence to soybean when soybean plants were at the V2 growth stage, which is the stage at which the first two trifoliolate leaves were expanded.
(§2) Eleven active ingredients representing the five chemical families with herbicidal activity on the acetolactate synthase enzyme were tested. These herbicides can cause a phytotoxic response in wild type soybean plants. The five chemical families tested were sulfonylaminocarbonyltriazolinone (also known as triazolinone), imidazolinone, sulfonylurea, pyrimidinylthiobenzoate, and triazolopyrimidine. Application rates ranged from 0.5 times to eight times the currently labeled application rate for each active ingredient with spray application volume at 30 gallons/acre. The application rates tested were 0.5×, 1×, 2×, 4× and 8× the label rate for each herbicide. Herbicidal active ingredients were applied as formulated materials dispersed in water containing 0.25% nonionic surfactant (Trend® 90).
(§3) The test was evaluated by visually scoring plant phenotype 14 days after the herbicides were applied. Controls consisted of soybean plants of the same variety that received no herbicide treatments for each of all the varieties tested. Soybean response was recorded on a zero to 100 visual scale in which zero is no phytotoxic response and 100 is plant death fourteen days after the herbicides were applied. Soybean response (percent phytotoxicity) to postemergence applications of herbicides inhibiting the acetolactate synthase enzyme test results are shown in Table 1.

[1] = tested on: soybean having the Als1 mutation; assay: Greenhouse postemergence test of ALS-inhibiting herbicides, soybean with Als1 mutation; conditions: for Avg response (% phytotoxicity), Trait Als1: Table 2
Description: as §1, §2, §3
(§4) Results in Table 1 were evaluated using the isobole method for analyzing interactions. […] Here the biologically active agents that are being assessed for interaction (synergy) are gene mutations in soybean. The effectiveness of the genes in providing improved tolerance to ALS-inhibiting herbicides was assessed by applying increasing doses of herbicides to each soybean line with its mutation(s).
(§5) An isobole reduces a dose response surface in three dimensional space to a two dimensional plot by fixing a defined response level (e.g., 50% response). The isobole plot is a graph in the Cartesian plane with a straight line connecting the isoeffective rates of the individual components of the combination. This straight line represents expected responses for zero interactive combinations. The isoeffective rate used to create the isobole is often the EC50, the rate estimated to elicit 50% response, but other ECx values can be used. Since the isobole method is based on the potency of the components of the combination, an experimental design testing a range of rates expected to elicit the full range of responses (e.g., 0 to maximum response) is best. (Ferry et al. (2005) 2005 Conference on Applied Statistics in Agriculture Proceedings pp 33-50, Manhattan, Kans., Kansas State Univ.; Green and Streibig (1993) Herbicide Mixtures, pp 117-134 in Herbicide Bioassays, Streibig and Hudsk Eds, CRC, Boca Raton, Fla.).
(§6) Loglogistic dose response curves were fit to percent phytotoxicity response data using log 10 of dose (McCullagh and Nelder (1989) Generalized Linear Models, Chapman & Hall, London). Curves were fit using the logit link with normal errors. […]

[2] = tested on: soybean having the Als2 mutation; assay: Greenhouse postemergence test of ALS-inhibiting herbicides, soybean with Als2 mutation; conditions: for Avg response (% phytotoxicity), Trait Als2: Table 2
Description: as §1, §2, §3, §4, §5, §6

[3] = tested on: soybean having both the Als1 and Als2 mutations; assay: Greenhouse postemergence test of ALS-inhibiting herbicides and isobole analysis, soybean with Als1 and Als2 mutations; conditions: for Avg response (% phytotoxicity), Trait Als1 + Als2: Table 2
Description: as §1, §2, §3, §4, §5, §6

[4] = 4.38 g ai/ha postemergence at V2, scored 14 days after application
[5] = 8.75 g ai/ha postemergence at V2, scored 14 days after application
[6] = 17.5 g ai/ha postemergence at V2, scored 14 days after application
[7] = 35 g ai/ha postemergence at V2, scored 14 days after application
[8] = 70 g ai/ha postemergence at V2, scored 14 days after application
[9] = rate of herbicide estimated to cause 10% phytotoxic response, loglogistic fit
[10] = rates 0.5x to 8x the label rate
[11] = 140 g ai/ha postemergence at V2, scored 14 days after application
[12] = rate of herbicide estimated to cause 50% phytotoxic response, loglogistic fit

## Cc1cc(C)nc(NC(=O)NS(=O)(=O)c2ccccc2C(=O)O)n1 [Sulfometuron]
Wild type soybean; [4]
  Soybean response (percent phytotoxicity), Wild type: 60%
Wild type soybean; [5]
  Soybean response (percent phytotoxicity), Wild type: 95%
Wild type soybean; [6]
  Soybean response (percent phytotoxicity), Wild type: 98%
Wild type soybean; [7]
  Soybean response (percent phytotoxicity), Wild type: 98%
Wild type soybean; [8]
  Soybean response (percent phytotoxicity), Wild type: 98%
[1]; [4]
  Soybean response (percent phytotoxicity), Als1: 0%
[1]; 4.38 g ai/ha
  Avg response (% phytotoxicity), Trait Als1: 0%
[1]; [5]
  Soybean response (percent phytotoxicity), Als1: 0%
[1]; 8.75 g ai/ha
  Avg response (% phytotoxicity), Trait Als1: 0%
[1]; [6]
  Soybean response (percent phytotoxicity), Als1: 10%
[1]; 17.5 g ai/ha
  Avg response (% phytotoxicity), Trait Als1: 10%
[1]; [7]
  Soybean response (percent phytotoxicity), Als1: 55%
[1]; 35 g ai/ha
  Avg response (% phytotoxicity), Trait Als1: 55%
[1]; [8]
  Soybean response (percent phytotoxicity), Als1: 80%
[1]; 70 g ai/ha
  Avg response (% phytotoxicity), Trait Als1: 80%
[1]; [9]
  EC10, Als1: 14.93 g ai/ha
[1]; the higher doses
  phytotoxicity (in words), soybean containing only the Als1 gene: substantial phytotoxicity
[2]; [4]
  Soybean response (percent phytotoxicity), Als2: 35%
[2]; 4.38 g ai/ha
  Avg response (% phytotoxicity), Trait Als2: 35%
[2]; [5]
  Soybean response (percent phytotoxicity), Als2: 40%
[2]; 8.75 g ai/ha
  Avg response (% phytotoxicity), Trait Als2: 40%
[2]; [6]
  Soybean response (percent phytotoxicity), Als2: 70%
[2]; 17.5 g ai/ha
  Avg response (% phytotoxicity), Trait Als2: 70%
[2]; [7]
  Soybean response (percent phytotoxicity), Als2: 75%
[2]; 35 g ai/ha
  Avg response (% phytotoxicity), Trait Als2: 75%
[2]; [8]
  Soybean response (percent phytotoxicity), Als2: 80%
[2]; 70 g ai/ha
  Avg response (% phytotoxicity), Trait Als2: 80%
[2]; [9]
  EC10, Als2: 0.76 g ai/ha
[2]; the higher doses
  phytotoxicity (in words), soybean containing only the Als2 gene: substantial phytotoxicity
[3]; [4]
  Soybean response (percent phytotoxicity), Als1 + Als2: 0%
[3]; 4.38 g ai/ha
  Avg response (% phytotoxicity), Trait Als1 + Als2: 0%
[3]; [5]
  Soybean response (percent phytotoxicity), Als1 + Als2: 0%
[3]; 8.75 g ai/ha
  Avg response (% phytotoxicity), Trait Als1 + Als2: 0%
[3]; [6]
  Soybean response (percent phytotoxicity), Als1 + Als2: 0%
[3]; 17.5 g ai/ha
  Avg response (% phytotoxicity), Trait Als1 + Als2: 0%
[3]; [7]
  Soybean response (percent phytotoxicity), Als1 + Als2: 10%
[3]; 35 g ai/ha
  Avg response (% phytotoxicity), Trait Als1 + Als2: 10%
[3]; [8]
  Soybean response (percent phytotoxicity), Als1 + Als2: 5%
[3]; 70 g ai/ha
  Avg response (% phytotoxicity), Trait Als1 + Als2: 5%
[3]; [9]
  EC10, Als1 + Als2: 114.81 g ai/ha
[3]; the higher doses
  tolerance (in words), soybean containing both the Als1 and the Als2 genes: extremely tolerant

## COc1nc(C)nc(NC(=O)NS(=O)(=O)c2ccsc2C(=O)O)n1 [Thifensulfuron]
Wild type soybean; [4]
  Soybean response (percent phytotoxicity), Wild type: 0%
Wild type soybean; [5]
  Soybean response (percent phytotoxicity), Wild type: 10%
Wild type soybean; [6]
  Soybean response (percent phytotoxicity), Wild type: 10%
Wild type soybean; [7]
  Soybean response (percent phytotoxicity), Wild type: 25%
Wild type soybean; [8]
  Soybean response (percent phytotoxicity), Wild type: 45%
[1]; [4]
  Soybean response (percent phytotoxicity), Als1: 0%
[1]; [5]
  Soybean response (percent phytotoxicity), Als1: 0%
[1]; [6]
  Soybean response (percent phytotoxicity), Als1: 0%
[1]; [7]
  Soybean response (percent phytotoxicity), Als1: 0%
[1]; [8]
  Soybean response (percent phytotoxicity), Als1: 0%
[1]; [10]
  phytotoxic response (in words), Als1: did not cause any phytotoxic response
[2]; [4]
  Soybean response (percent phytotoxicity), Als2: 0%
[2]; [5]
  Soybean response (percent phytotoxicity), Als2: 0%
[2]; [6]
  Soybean response (percent phytotoxicity), Als2: 0%
[2]; [7]
  Soybean response (percent phytotoxicity), Als2: 0%
[2]; [8]
  Soybean response (percent phytotoxicity), Als2: 0%
[2]; [10]
  phytotoxic response (in words), Als2: did not cause any phytotoxic response
[3]; [4]
  Soybean response (percent phytotoxicity), Als1 + Als2: 0%
[3]; [5]
  Soybean response (percent phytotoxicity), Als1 + Als2: 0%
[3]; [6]
  Soybean response (percent phytotoxicity), Als1 + Als2: 0%
[3]; [7]
  Soybean response (percent phytotoxicity), Als1 + Als2: 0%
[3]; [8]
  Soybean response (percent phytotoxicity), Als1 + Als2: 0%
[3]; [10]
  phytotoxic response (in words), Als1+Als2: did not cause any phytotoxic response

## CC(C)C1(C)N=C(c2ncccc2C(=O)O)NC1=O (stereo not drawn) [Imazapyr]
Wild type soybean; [5]
  Soybean response (percent phytotoxicity), Wild type: 10%
Wild type soybean; [6]
  Soybean response (percent phytotoxicity), Wild type: 40%
Wild type soybean; [7]
  Soybean response (percent phytotoxicity), Wild type: 75%
Wild type soybean; [8]
  Soybean response (percent phytotoxicity), Wild type: 90%
Wild type soybean; [11]
  Soybean response (percent phytotoxicity), Wild type: 98%
[1]; [5]
  Soybean response (percent phytotoxicity), Als1: 0%
[1]; 8.75 g ai/ha
  Avg response (% phytotoxicity), Trait Als1: 0%
[1]; [6]
  Soybean response (percent phytotoxicity), Als1: 10%
[1]; 17.5 g ai/ha
  Avg response (% phytotoxicity), Trait Als1: 10%
[1]; [7]
  Soybean response (percent phytotoxicity), Als1: 45%
[1]; 35 g ai/ha
  Avg response (% phytotoxicity), Trait Als1: 45%
[1]; [8]
  Soybean response (percent phytotoxicity), Als1: 80%
[1]; 70 g ai/ha
  Avg response (% phytotoxicity), Trait Als1: 80%
[1]; [11]
  Soybean response (percent phytotoxicity), Als1: 98%
[1]; 140 g ai/ha
  Avg response (% phytotoxicity), Trait Als1: 98%
[1]; [12]
  EC50, Als1: 38.86 g ai/ha
[2]; [5]
  Soybean response (percent phytotoxicity), Als2: 5%
[2]; 8.75 g ai/ha
  Avg response (% phytotoxicity), Trait Als2: 5%
[2]; [6]
  Soybean response (percent phytotoxicity), Als2: 20%
[2]; 17.5 g ai/ha
  Avg response (% phytotoxicity), Trait Als2: 20%
[2]; [7]
  Soybean response (percent phytotoxicity), Als2: 25%
[2]; 35 g ai/ha
  Avg response (% phytotoxicity), Trait Als2: 25%
[2]; [8]
  Soybean response (percent phytotoxicity), Als2: 50%
[2]; 70 g ai/ha
  Avg response (% phytotoxicity), Trait Als2: 50%
[2]; [11]
  Soybean response (percent phytotoxicity), Als2: 55%
[2]; 140 g ai/ha
  Avg response (% phytotoxicity), Trait Als2: 55%
[2]; [12]
  EC50, Als2: 93.91 g ai/ha
[3]; [5]
  Soybean response (percent phytotoxicity), Als1 + Als2: 0%
[3]; 8.75 g ai/ha
  Avg response (% phytotoxicity), Trait Als1 + Als2: 0%
[3]; [6]
  Soybean response (percent phytotoxicity), Als1 + Als2: 0%
[3]; 17.5 g ai/ha
  Avg response (% phytotoxicity), Trait Als1 + Als2: 0%
[3]; [7]
  Soybean response (percent phytotoxicity), Als1 + Als2: 0%
[3]; 35 g ai/ha
  Avg response (% phytotoxicity), Trait Als1 + Als2: 0%
[3]; [8]
  Soybean response (percent phytotoxicity), Als1 + Als2: 40%
[3]; 70 g ai/ha
  Avg response (% phytotoxicity), Trait Als1 + Als2: 40%
[3]; [11]
  Soybean response (percent phytotoxicity), Als1 + Als2: 55%
[3]; 140 g ai/ha
  Avg response (% phytotoxicity), Trait Als1 + Als2: 55%
[3]; [12]
  EC50, Als1 + Als2: 112.81 g ai/ha
